Reference: article PMC2773450 (Analytical biochemistry, 2008)

Target: T1, O^6-alkylguanine—DNA alkyltransferase (AGT) (Homo sapiens, UniProt P16455)
T1 sequence (P16455 1-207): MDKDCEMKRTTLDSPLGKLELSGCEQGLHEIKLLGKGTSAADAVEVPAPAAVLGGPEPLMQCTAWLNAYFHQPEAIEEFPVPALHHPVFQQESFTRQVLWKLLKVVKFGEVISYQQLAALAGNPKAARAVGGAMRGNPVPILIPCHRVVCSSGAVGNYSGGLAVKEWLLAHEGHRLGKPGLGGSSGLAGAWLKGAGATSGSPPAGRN

Substance: O^6-(thiophenemethyl)guanine [TMG]
- IC50: 23 nM
